Experimental data taken from US20190211099A1, “METHODS AND COMPOSITIONS FOR TREATING CANCER WITH SIGLEC-9 ACTIVITY MODULATORS” (KING'S COLLEGE LONDON, priority 2016, published 2019).

How the values were obtained:
Assay type in all cases: cell-based, human
THP-1 cells = assay: PAI-1, M-CSF and kynurenine in supernatants of differentiated THP-1 cells; conditions: THP-1; PD98059
Experimental: THP-1 cells were cultured at a concentration of 1×10^6/mL in AIM V medium. Cells were differentiated using […] phorbol 12-myristate 13-acetate (PMA) on day 0 and 100 ng/mL LPS on day 3 in the presence or absence of 100 μg/mL MUC1-ST or MUC1-T. Cell supernatants were harvested on day 5 and PAI-I concentration measured by ELISA.
Given that IDO catalyzes the rate-limiting step in the metabolism of tryptophan, the tryptophan metabolite kynurenine was detected as follows. 604, supernatant was mixed with 304, 30% trichloroacetic acid (TCA) and incubated for 30 minutes at 50° C. The supernatant was spun at 3000×g and 50 μL was harvested and mixed with 50 μL freshly prepared Ehrlich Reagent (2% p-dimethylaminobenzaldehyde in glacial acetic acid). After 10 minutes optical density (O.D.) was measured at 492 nm, and concentrations were calculated against a kynurenine standard curve. An increase in the tryptophan metabolite kynurenine was observed (FIG. 11D).
The intracellular effects of MUC1-ST binding to Siglec-9 were further explored in the monocytic cell line, THP-1. THP-1 cells were cultured for three days at a concentration of 1×10^6/mL in AIM V medium and differentiated using […] phorbol 12-myristate 13-acetate (PMA) in the presence or absence of 100 μg/mL MUC1-ST. […] THP-1 cells were further treated with DMSO or the MEK/ERK inhibitor PD98059 at 1004, and the concentration of PAI-1, M-CSF and kynurenine in cell supernatants were measured as described above. […] This increase in concentration was blocked by the MEK/ERK inhibitor PD98059 (FIG. 4I).

allogeneic CD8+ T cells = assay: Co-culture of MUC1-ST treated macrophages with allogeneic CD8+ T cells; conditions: MEK signalling inhibited in the macrophages (FIG. 13K)
Experimental: Thereafter, the effects of MUC1-ST educated macrophages on T cell function were analyzed. Macrophages treated with MUC1-ST were co-cultured with eFluor® 670 labelled allogeneic CD8+ T cells in the presence of absence of anti-Siglec-9 antibody or isotype control. Indeed, macrophages that had been educated with MUC1-ST were decreased in their ability to stimulate the proliferation of allogeneic CD8 T cells (FIG. 11E). […] (FIG. 11F). This profile of expression and functional activity is indicative of tumor-associated macrophages (TAMs), which play a role in promoting tumor progression (Noy et al. (2014) IMMUNITY 41: 49-61; Sousa et al. (2015) BREAST CANCER RES. 17: 101; Qian et al. (2010) CELL 141: 39-45).

monocytes from PBMCs = assay: MUC1-ST mediated TAM formation in monocytes from PBMCs, 7 day serum-free culture; conditions: PD98059 at 10 μM
Experimental: To further explore the role of MUC1-ST in inducing a TAM-like phenotype, monocytes from PBMCs were plated in serum-free medium, incubated with MUC1-ST or PBS, and cultured for 7 days.
Intracellular calcium flux can lead to activation of the MEK/ERK pathway (Christo et al. (2015) IMMUNOL. AND CELL BIOLOGY 93: 694-704). […] Furthermore, treatment with the MEK inhibitor PD98059 at 10 μM inhibited MUC1-ST mediated TAM formation in monocytes (FIGS. 12B, 12D-12E).

[1] = test system: MUC1-ST educated monocytes and macrophages; assay: Secretion of PAI-1 and M-CSF from MUC1-ST educated monocytes and macrophages with PD98059 or verapamil
Experimental: ELISAs for IL-6, IL-12p70, TGF-β1, PAI-1, M-CSF, EGF, SHP2, phospho-SHP2 (Biotechne) were all carried out as per manufacturer's instructions.
To explore this, the secretion of PAI-1 and M-CSF from MUC1-ST educated monocytes and macrophages was measured following treatments with 1 μM PD98059 or 20 μM verapamil for 20 minutes at 37° C., where indicated.

[2] = test system: M-CSF macrophages differentiated with LPS and IFNγ; assay: Differentiation of monocytes into M(LPS+IFNγ) macrophages: CD86 and IL-12; conditions: blocking antibodies
Experimental: Both the cell phenotype staining and neutralization studies described in the Examples were performed using the following antibodies (all anti-human): Siglec-9 (Biotechne; 191240), Siglec-9 FITC (Biotechne; 191240), Siglec-3 (Biotechne; 6C5/2), Siglec-7 (Biotechne; AF1138), Siglec-3 FITC (BD; P67.6), Siglec-7 PE (Biolegend; 6-434), Siglec-10 PE (Biolegend; 5G6), Siglec-1 (abcam; 7D2), HLA-DR FITC (Beckman Coulter; IM0463U), CD16 FITC (Biolegend; B73.1), CD14 FITC (BD 555397), CD69 PE (Beckman Coulter; IM1943), CD25 FITC (ABX228FITC), CD86 PE (Beckman Coulter; IM2729U), CD40 FITC (BD 555588), CD83 PE (Beckman Coulter; IM2218), CD163 PE (Biolegend; GHI/61), CXCR1 FITC (BD Pharmongen; 551126), CD45 PC5 (Beckman Coulter; IM2653U), CD206 PE (ebioscience; 19.2), PD-L1 PE (Biolegend; 29E.2A3), CD36 (Santa Cruz; H-300), TGFbetaRII (Bio-Techne; AF-241), IL-6Rα (Tocilizumab; Roche. A generous gift from Dr. Valerie Corrigall). […] At least 1×10^4 events were evaluated using either Epics XL, (Beckman Coulter) or FACSCalibur (BD Biosciences) flow cytometers. […]
Given that IL-6 and NO are known differentiation modulators (Oosterhoff et al. (2012) ONCOIMMUNOLOGY 1: 649-658; Bogdan (2015) TREND IMMUNOL. 36: 161-178) the effects of MUC1-ST on the differentiation of monocytes into macrophages was assessed. […]

CD8+ T cells = assay: Co-culture of MUC1-ST educated M-CSF macrophages with CD3/CD28 stimulated autologous T cells; conditions: antibody present
Experimental: In addition, primary monocytes were induced to differentiate to macrophages in the presence of MUC1-ST and then co-cultured for 48 hours with CD3/CD28 stimulated autologous CD8+ or CD4+ T cells. T cell proliferation and CD69/CD25 cell surface expression were measured using flow cytometry.

[3] = test system: monocyte derived dendritic cells; assay: Differentiation of monocytes into dendritic cells; conditions: 10 μg/10^6 cells anti-Siglec-9 before MUC1-ST; 10 μg/ml anti-IL-6Rα every 2 days
Experimental: To differentiate monocytes into macrophages, CD14+ cells were plated at a concentration of 1×10^6/mL in AIM V medium (Lonza) with either 50 ng/mL recombinant human M-CSF or 50 ng/mL recombinant human GM-CSF (Bio-Techne). The cytokines were added every 3 days. The cells were incubated at 37° C., 5% CO2 for 7 days to fully differentiate, before being characterized as macrophages via phenotypic flow cytometric analysis. To differentiate monocytes into dendritic cells (moDC), CD14+ cells were plated at a concentration of 1×10^6/mL in AIM V medium with 1500 U/mL recombinant human IL-4 (Bio-Techne) and 400 U/mL human GM-CSF (Bio-Techne) for 6 days to fully differentiate, before being characterized as immature DCs via phenotypic flow cytometric analysis (Epics XL, Beckman Coulter or FACSCalibur, BD Biosciences plus WinMDI or Cellquest software). MoDCs were matured using 1 μg/mL LPS for 24 hours.
In addition, the effects of MUC1-ST on the differentiation of monocytes into dendritic cells were assessed. Briefly, monocytes were treated with MUC1-ST on day 0 and differentiated into immature dendritic cells (DCs) using IL-4 (1500 U/mL) and GM-CSF (400 U/mL) in AIM-V media for 6 days. Immature DCs were matured using 1 μg/mL LPS for 24 hours. […]

[4] = 1 μM PD98059, 20 minutes at 37° C.
[5] = 20 μM verapamil, 20 minutes at 37° C.

`COc1cccc(-c2cc(=O)c3ccccc3o2)c1N` [PD98059, reference compound] was tested, and the “MUC1-ST induced increase in PAI-1, kynurenine and M-CSF concentration” value (THP-1 cells) was “blocked”, the “repression of T cell proliferation by MUC1-ST treated macrophages” value (allogeneic CD8+ T cells) was “could be overcome” and the “MUC1-ST mediated TAM formation in monocytes” value (monocytes from PBMCs) was “inhibited”. The “secretion of M-CSF” value [1, 4] was “significantly inhibited” and the “secretion of PAI-1” value [1, 4] was “significantly inhibited”.
`COc1ccc(CCN(C)CCCC(C#N)(c2ccc(OC)c(OC)c2)C(C)C)cc1OC` (stereo not shown) [verapamil] was tested, and the “secretion of M-CSF” value [1, 5] was “significantly inhibited” and the “secretion of PAI-1” value [1, 5] was “significantly inhibited”.
With “Tocilizumab [anti-IL-6Rα, reference compound]” the “rescue of MUC1-ST induced lowering of CD86 and IL-12” value [2] was “partially rescued”, the “reversal of the inhibition of CD8+ T cell activation” value (CD8+ T cells) was “could be reversed” and the “reversal of the effect of MUC1-ST on differentiation of dendritic cells” value [3] was “significantly reverse”.
